Measured values taken from patent US20200347347A1, “COMPOSITIONS AND METHODS FOR IMPROVED GAMETE VIABILITY AND FUNCTION” (Premium Genetics [UK] Ltd., priority 2017, published 2020).

Columns and labels:
sperm cells [1] = assay: Progressive motility of extended ejaculate stored at 19° C. (CASA); assay type: cell-based, bovine; conditions: SVFEM supplemented with 3 mM NaF normalized to 0 mM NaF; 24 hours; N=8
Method: Progressive motile % was determined using a CASA system. N=10 paired ejaculates.
Ejaculate extension and Incoming Quality Assessment: The volume of the ejaculate was determined using a serological pipette and evenly divided into two tubes. Immediately, within 15 minutes, the SVFEM extender was added in a 1:1 ratio to the SVFEM extended half of the split ejaculate. […] On arrival, GTLS antibiotic solution was added at a 2% v/v of ejaculate.
Within 45 minutes of initial ejaculate collection, the cell concentration and incoming motility parameters were collected. Concentration was determined using a Nucleocounter SP-100™ with Reagent S100 and SP100 cassettes (ChemoMetec Allerod, Denmark). Motility characteristics were calculated by diluting 10 μL sample in 990 μL motility diluent and reading 7 frames each in 2 chambers of Leja 4 chamber capillary slides with a known chamber depth on a Hamilton Thorne IVOS II using HTCasa II software at 60 Hz frame capture speed in a 37° C. enclosed stage with a Zeiss 1× objective.

sperm cells [2] = assay: Outgoing quality control: progressively motile cells per straw after freeze-thaw; assay type: cell-based, bovine; conditions: NaF 0-6 mM in SVFEM
Method: After 90 minutes of equilibration at 4° C. the samples were cryoprotected by adding TRIS B (which contains glycerol) to a final concentration of 20% v/v of sample in 3 separate additions, 15 minutes apart. The concentration of progressively motile cells was determined using the Hamilton Thorne IVOS II with HTCasa Animal Breeders II software set to the same capture settings listed above, but with a Xenon light source and an Olympus 10× UplanSApo objective. The cryoprotected sample was diluted to final live, motile cell concentration, 2.5 M/mL, in Packaging Extender and placed in Mini Straws which hold 0.25 mL volume (IMV technologies, Maple Grove, Minn. USA) using an MX4 straw filling and sealing machine (IMV technologies, Maple Grove, Minn. USA). Filled straws were rapidly cooled using a freeze tunnel before storage in liquid nitrogen.
Outgoing Quality Control Assessment: To assess the number of motile cells that survived the freezing process a single straw is thawed in a 37° C. water bath for 45 seconds. The straw is then plunged into a pre-warmed Eppendorf tube. The sample is then gently vortexed 10 seconds to homogenize the sample. After which 20 μLs of sample is added to 20 μLs of QC diluent, gently vortexed for 5 seconds, and read on the CASA fluorescent settings described above.

sperm cells [3] = assay: Motility of semen samples after 24-hour storage in media (Examples 4-7, 10, 11); assay type: cell-based, Angus bull; conditions: Example 10; samples stored for 24 hours
Method: Semen sample creation: The media of Example 1 is mixed with semen in a 1:1 volume ratio. Optimal performance is seen when the media was warmed to 37° C. prior to mixing with Angus bull semen, and when the media is added to semen between 10 and 30 minutes post-ejaculation. The media remains effective, however, when mixed with cells 1 hour after ejaculation. After the addition of the media, cells are stored at 19° C. […] In FIG. 33 p=0.017, in a paired t-test. […] Semen samples from Angus bulls (n=4) were taken and tested at the collection, then after storing in the media of Example 1 (SVFEM) for 24 hours. […] Another test was performed to compare samples after 24-hour storage. Semen samples from Angus bulls (n=10) were taken and combined with media. Samples using the inventive media SVFEM were compared to control samples using conventional media. Samples were analyzed to determine whether motility of cells was lost due to storage.

[F-].[Na+] [NaF, sodium fluoride]
fall of % progressive motile cells after staining below paired SVFEM group (sperm cells [1]): at least 20% | number of motile cells which survive a freeze/thaw after 24 hours' extension (sperm cells [2]): improved efficacy

phosphatidylserine [PS]
effect of eliminating the ingredient from SVFEM on motility (sperm cells [3]): drop in motility
